Experimental data as given in PubChem BioAssay AID179 (DTP/NCI, 2004).
The source made the active and inactive calls.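 Rule for the calls: active = compounds giving half or more protection of infected cells from virus-caused growth loss, again on retest; inactive = the rest.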

System: CEM cells HIV-1 protection, formazan growth assay
Assay: NCI AIDS Antiviral Assay
Conditions: for IC50: measured here: growth of uninfected CEM cells
Summary of the method: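 Protection of CEM cells against HIV-1 was scored from cell growth (soluble formazan) across five concentrations, with parallel uninfected cells. Lack of protection may reflect toxicity.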

Compound | EC50 | IC50 | outcome
COc1cc2c(cc1OC)-c1nc(N)sc1CC2 | > 38 µM | > 38 µM | 
Cn1cnc(=S)c2ccccc21 | > 200 µM | > 200 µM | 
COC(=O)c1cc(C(c2cc(C)c(O)c(C(=O)OC)c2)c2cc(C)c(O)c(C(=O)OC)c2)cc(C)c1O |  |  | inactive
C/C(CC(=O)Nc1ccc([N+](=O)[O-])cc1)=N/N=C(N)N | > 67.6 µM | > 67.6 µM | 
O=c1cc(NNc2ccc(F)cc2)[nH]c(=O)[nH]1 | > 200 µM | 2.95 µM | 
O=C1CSC(/C=C/c2ccccc2)N1c1ccc(-c2ccc(-n3c(-c4ccccc4)nc4ccccc4c3=O)cc2)cc1 (centres undefined) | > 200 µM | 28.2 µM | 
Cn1c(N=P(c2ccccc2)(c2ccccc2)c2ccccc2)c([N+](=O)[O-])c(=O)n(C)c1=O |  |  | inactive
CCN1CC2(COC)C(O)CC(OC)C34C5CC6(O)C(O)C5C(O)(C(O)C6OC)C(C(OC)C23)C14 (centres undefined) | > 200 µM | > 200 µM | 
CC(C)(C)C1=C(Br)C(C(C)(C)C)OP1(=O)O (centres undefined) | > 100 µM | > 100 µM | 
O=C1c2ccccc2C(=O)C2(C(c3ccccc3)c3ccccc3)N=NCC12 (centres undefined) | > 200 µM | 105 µM | 
NC12CC3CC(C1)CC(C(=O)O)(C3)C2 | > 1070 µM | > 1070 µM | 
OC[C@@H](O)[C@@H](O)c1cnn(-c2ccccc2)n1 | > 200 µM | > 200 µM | 
C/C(=N\NC(=S)N1CCCCCC1)c1ccccn1 | > 49 µM | 0.0372 µM | 
CCC[n+]1nc2ccccc2c(=Nc2ccccc2[N+](=O)[O-])[n-]1 | > 23.4 µM | > 23.4 µM | 
COC(=O)c1ccc(CO/N=C(\c2ccccc2)c2cccnc2)cc1 | > 200 µM | 47.9 µM | 
COc1ccc(C2N(c3ccc(C)c(N=C=O)c3)C(=O)N3C(c4ccc(OC)cc4)N(c4ccc(C)c(N=C=O)c4)C(=O)N23)cc1 (centres undefined) | > 200 µM | 12.6 µM | 

Compound | EC50 | IC50 | outcome
CCOP(=O)(OCC)/C(C#N)=C/c1ccc(C#N)cc1 | > 123 µM | > 123 µM | 
CC1=N/C(=C\c2cccc([N+](=O)[O-])c2)C(=O)O1 | > 562 µM | > 562 µM | 
CCN(CC)CC(=O)Nc1ccc2c(c1)C(=O)c1ccc(NC(=O)CN(CC)CC)cc1C2=O | > 100 µM | 2.09 µM | 
NC1(CCNC(=O)c2ccccc2)CCN(C(=O)c2ccccc2)CC1 | > 200 µM | 145 µM | 
CS(=O)(=O)N1CC(CCl)c2ccc(O)cc21 (centres undefined) | > 200 µM | 1.86 µM | 
O=C(NCC(O)COc1ccccc1)c1ccccc1O (centres undefined) | > 200 µM | 115 µM | 
CN(C)C1C(=O)C(C(=O)NCNC2C(=O)N3C2SC(C)(C)C3C(=O)O)=C(O)C2(O)C(=O)C3=C(O)c4c(O)cccc4C(C)(O)C3CC12 (centres undefined) | > 269 µM | 251 µM | 
Cc1cn(C2CC(O)C(COC(=O)CCCCCCCCCCBr)O2)c(=O)[nH]c1=O (centres undefined) | > 102 µM | 53.7 µM | 
CCCNC1=C(Cl)C(=O)c2ccccc2C1=O | > 145 µM | 26.3 µM | 
CCCCOC(=O)C1CC2OC2CC1C(=O)OCCOCCOC(=O)C1CC2OC2CC1C(=O)OCCCC (centres undefined) | > 200 µM | 51.3 µM | 
CCOC(=O)/C=C1/SC(N2CCCCC2)C(=O)N1CC (centres undefined) | > 166 µM | > 166 µM | 
Cc1cc(N)c2cc(NC(=O)CCCCCCCCC(=O)Nc3ccc4nc(C)cc(N)c4c3)ccc2n1 |  |  | inactive
COc1ccc(Nc2nc3ccc(C(F)(F)F)cc3nc2C(=O)O)cc1 | > 200 µM | 20.4 µM | 
COc1ccc2c(c1)OCCN(C)OC2c1cccc(Cl)c1 (centres undefined) | > 200 µM | 87.1 µM | 
N#Cc1cccc(N2C(=O)c3c(c(-c4ccccc4)c(-c4ccc(Sc5ccc(-c6c(-c7ccccc7)c7c(c(-c8ccccc8)c6-c6ccccc6)C(=O)N(c6cccc(C#N)c6)C7=O)cc5)cc4)c(-c4ccccc4)c3-c3ccccc3)C2=O)c1 | > 12 µM | > 12 µM | 
